Here are results for 6 compounds from PubChem BioAssay (NCI).

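All cell lines were grown in 96-well plates and treated with compound for 48 hours. At the TGI there is no net growth.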 Where only a bound is given, the exact number is not on record here.

Common to all, as to assay: growth of human tumour cells (NCI), 48 h
The subject of test [1] is A549 NSCLC.
Test [2] deals with CAKI-1 renal.
Test [3] concerns DU-145 prostate.
The test system of test [4] is EKVX NSCLC.
Test [5] relates to HCC-2998 colon.
Test [6] deals with HL-60(TB) leukemia.
Test [7] concerns HOP-92 NSCLC.
For test [8], the system named is HS 578T breast.
The test system of test [9] is KM12 colon.
Test [10] has as its system NCI-H460 lung.
In test [11] the test system is NCI-H522 lung.
Test [12] relates to OVCAR-8 ovarian.
For test [13], the system named is SF-539 CNS.
Test [14] deals with SK-MEL-28 melanoma.
Test [15] concerns SK-MEL-5 melanoma.
Test [16] deals with SK-OV-3 ovarian.
The test system of test [17] is SNB-19 CNS.
Test [18] concerns U251 CNS.
Test [19] concerns UACC-62 melanoma.

For `NS(=O)(=O)c1ccc(NNc2c3ccccc3nc3c(C(=O)Nc4ccc(S(N)(=O)=O)cc4)cccc23)cc1`, the TGI in test [1] is more than 100 µM; in test [2], more than 100 µM; in test [3], more than 100 µM; in test [4], more than 100 µM; in [5], 86.7 µM; in test [6], 68.9 µM. The TGI is 73.4 µM in test [7]; more than 100 µM in [8]; more than 100 µM in test [9]; more than 100 µM in test [10]; 50.8 µM in test [11]; more than 100 µM in [12]. In addition, the TGI in [13] was more than 100 µM; in test [14] it was more than 100 µM; in test [15], more than 100 µM; in [16], more than 100 µM; in test [17], more than 100 µM; in [18] it was 61 µM. For the same compound, the TGI in [19] was more than 100 µM.

Regarding `COc1ccc(Cc2nc3cc(C(F)(F)F)ccc3n2C[C@@H]2CCCN3CCCCC23)cc1` (some centres undefined), the TGI came out at 24.7 µM in test [1]; 25.6 µM in test [2]; 26.6 µM in test [3]; 27.7 µM in [4]; 5.94 µM in test [5]; 19.5 µM in test [6]. Also, the TGI worked out at 20.7 µM in [7]; 65.9 µM in [8]; 27.4 µM in [9]; 31.1 µM in test [10]; 21.8 µM in [11]; 30.3 µM in test [12]. Further, the TGI came out at 28.1 µM in [13]; 27.6 µM in [14]; 20.3 µM in test [15]; 28.4 µM in [16]; 27.4 µM in test [17]; 27.7 µM in [18]. Further, the TGI in test [19] worked out at 11.5 µM.

For the compound `C[C@H]1CC(=O)C[C@@H]2CC[C@@H]3[C@H](CC[C@]4(C)C(OC(=O)c5cccc6c(=O)c7ccccc7[nH]c56)CC[C@@H]34)[C@]21C` (some centres undefined), the TGI in test [1] is more than 100 µM; in test [2], 86 µM; in [3], more than 100 µM; in [4] it was more than 100 µM; in test [5] it was more than 100 µM; in test [6], 36.5 µM. The TGI in [7] is 70.8 µM; in test [8], more than 100 µM; in test [9], more than 100 µM; in test [10], more than 100 µM; in test [11], 72.8 µM; in test [12], 75.9 µM. The TGI is more than 100 µM in test [13]; more than 100 µM in test [14]; 40.3 µM in [15]; more than 100 µM in [16]; more than 100 µM in test [17]; more than 100 µM in test [18]. In test [19], this compound had a TGI of 88.3 µM.

As to `COc1cccc(O)c1-c1cc(=O)c2c(O)c(OC)c(OC)c(OC)c2o1`, the TGI in test [1] was more than 100 µM; in test [2] it was more than 100 µM; in test [3], 58.9 µM; in [4] it was more than 100 µM; in [5], 25.4 µM; in [6], 46.7 µM. The TGI is 82.8 µM in test [7]; more than 100 µM in [8]; 77.8 µM in [9]; 52.1 µM in [10]; 87.9 µM in test [11]; more than 100 µM in test [12]. For the same compound, the TGI in test [13] was more than 100 µM; in test [14], more than 100 µM; in test [15], 39.4 µM; in test [16], 89.3 µM; in test [17] it was more than 100 µM; in [18] it was more than 100 µM. This compound also showed a TGI in [19] of 32.8 µM.

Regarding `CC(=O)C1=C(C)N2C(=NC3=C(CCc4ccccc43)C2c2ccc(Cl)cc2)S1` (centres undefined), the TGI in test [1] is more than 100 µM; in [2], more than 100 µM; in [3] it was more than 100 µM; in test [4], more than 100 µM; in test [5], more than 100 µM; in test [6], 10.9 µM. For the same compound, the TGI in [7] was more than 100 µM; in test [8] it was more than 100 µM; in test [9], more than 100 µM; in test [10], more than 100 µM; in test [11] it was 82.7 µM; in test [12], more than 100 µM. For the same compound, the TGI in [13], in test [14], in [15], in test [16], in test [17] and in test [18] was more than 100 µM throughout. The compound also gave a TGI in [19] of more than 100 µM.

For the compound `CC(C)=CCN1c2ccccc2[C@@]2(CC=C(C)C)CCN(C)[C@@H]12`, the TGI was more than 100 µM in [1]; more than 100 µM in test [2]; more than 100 µM in test [3]; 64.3 µM in test [4]; 29.5 µM in test [5]; 38.1 µM in [6]. The TGI in test [7] is more than 100 µM; in test [8], 45.8 µM; in [9], more than 100 µM; in test [10], 30.4 µM; in test [11], 39.9 µM; in test [12], 90.2 µM. Further, the TGI in test [13] was 64.9 µM; in test [14], more than 100 µM; in test [15], 33.2 µM; in test [16], 77.1 µM; in test [17], 52.6 µM; in test [18] it was 40.5 µM. This compound showed a TGI in [19] of 34.8 µM.
